pIC50: −log10 of the molar value. Read-outs that look alike come from different tables or passages of the source.
Columns and labels:
Format in all cases: cell-based, human
[1] = test system: Target C; assay: RT-qPCR splicing assay panel, Target C canonical junction (CJ) mRNA; conditions: Table 5 panel, canonical junction qPCR, compound concentration having 50% response in CJ decrease, read-out: Target C IC50 (decrease in CJ mRNA levels)
Summary of the method: (§1)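 Canonical exon-exon junction transcript levels measured by one-step RT-qPCR of cell lysates, normalized to a housekeeping gene (GAPDH, GUSB or PPIA). Cells used were A673 or K562, exposed for 24 h to compound in 11-point, 3-fold series from 10 uM, with final DMSO at or below 0.25%.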

[2] = test system: SMN2 mRNA; assay: RT-qPCR splicing assay, SMN2 canonical junction (CJ) mRNA; conditions: Table 5 panel, canonical junction qPCR, compound concentration having 50% response in CJ decrease, read-out: SMN2 IC50 (decrease in CJ mRNA levels)
Summary of the method: as §1

[3] = test system: HTT; assay: HiBiT protein abundance assay, HTT HiBiT K562 cell line; conditions: HiBiT K562 cell line, 24 hours, top dose 10 μM; read-out: Effect on protein abundance, HTT (IC50 category)
Summary of the method: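 Tagged-protein abundance measured by split-NanoBiT luminescence after lysis, following 24 h compound exposure (37° C; 10 μM top, 3-fold, 10 points; DMSO ≤0.25%) of HiBiT knock-in K562 cells. Percent response vs DMSO and unmodified-cell controls; 4-parameter logistic interpolation at 50% gave IC50.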

Structure (SMILES) | pIC50 ([1]; Homo sapiens) | pIC50 ([2]; Homo sapiens) | pIC50 [3] | pIC50 [1] | pIC50 [2]
Cc1cn2cc(-c3ccc4c(=O)n(C5CCNCC5)cnc4c3)c(C)cc2n1 [Compound 244] | < 5.00 | 6.00 to 7.00 | < 5.00 | – | –
Cn1cc2cc(-c3ccc4c(=O)n(C5CCNCC5)ncc4c3)cc(F)c2n1 [Compound 249] | 5.00 to 6.00 | 5.00 to 6.00 | 5.00 to 6.00 | – | –
Cc1cn2cc(-c3ccc4c(c3)CCN(C3CCNCC3)C4=O)cc(C(F)(F)F)c2n1 [Compound 252] | < 5.00 | 6.00 to 7.00 | < 5.00 | – | –
Cc1nc2c(F)cc(-c3ccc4c(=O)n(C5CCNCC5)ncc4c3)cc2s1 [Compound 253] | 5.00 to 6.00 | 6.00 to 7.00 | 5.00 to 6.00 | – | –
Cc1cn2cc(-c3ccc4c(=O)n(C5CCNCC5)ncc4c3)c(C)cc2n1 [Compound 254] | 5.00 to 6.00 | 5.00 to 6.00 | 5.00 to 6.00 | – | –
Cc1cn2cc(-c3ccc4c(=O)n(C5CCNCC5)ncc4c3)ncc2n1 [Compound 255] | < 5.00 | 6.00 to 7.00 | < 5.00 | – | –
O=c1c2ccc(-c3cn[nH]c3)cc2cnn1C1CCNCC1 [Compound 261] | < 5.00 | 5.00 to 6.00 | < 5.00 | – | –
Cc1cn2cc(-c3ccc4c(=O)n(C5CCNCC5)ncc4c3)cc(C(F)(F)F)c2n1 [Compound 262] | 5.00 to 6.00 | > 7.00 | 5.00 to 6.00 | – | –
Cn1cc2ccc(-c3ccc4c(=O)n(C5CCNCC5)ncc4c3)cc2n1 [Compound 263] | < 5.00 | < 5.00 | < 5.00 | – | –
Cc1cn2nc(-c3ccc4c(=O)n(C5CCNC5)ncc4c3)cc(C)c2n1 (stereo not drawn) [Compound 264] | < 5.00 | 6.00 to 7.00 | 5.00 to 6.00 | – | –

Results, then the molecule that gave them:

pIC50 ([1]; Homo sapiens) | pIC50 ([2]; Homo sapiens) | pIC50 [3] | pIC50 [1] | pIC50 [2] | Structure (SMILES)
> 7.00 | > 7.00 | > 7.00 | – | – | Cc1cn2nc(-c3cc(F)c4c(=O)n(C5CCNCC5)cnc4c3)cc(C)c2n1 [Compound 243]
6.00 to 7.00 | > 7.00 | 6.00 to 7.00 | – | – | Cc1nc2c(F)cc(-c3ccc4c(=O)n(C5CCNCC5)cnc4c3)cc2o1 [Compound 245]
5.00 to 6.00 | 5.00 to 6.00 | 5.00 to 6.00 | – | – | Cc1cn2cc(-c3ccc4c(=O)n(C5CCN(C)CC5)cnc4c3)c(C)cc2n1 [Compound 246]
5.00 to 6.00 | > 7.00 | 6.00 to 7.00 | – | – | Cc1cn2cc(-c3ccc4c(c3)CCN(C3CCNCC3)C4=O)cc(F)c2n1 [Compound 247]
6.00 to 7.00 | > 7.00 | > 7.00 | – | – | Cc1cn2cc(-c3ccc4c(=O)n(C5CCNCC5)ncc4c3)cc(F)c2n1 [Compound 248]
6.00 to 7.00 | > 7.00 | > 7.00 | – | – | Cc1nc2c(F)cc(-c3ccc4c(=O)n(C5CCNCC5)ncc4c3)cc2o1 [Compound 250]
6.00 to 7.00 | > 7.00 | 6.00 to 7.00 | – | – | Cc1cc(-c2ccc3c(=O)n(C4CCNCC4)ncc3c2)cc2cn(C)nc12 [Compound 251]
< 5.00 | > 7.00 | 6.00 to 7.00 | – | – | Cc1cn2cc(-c3ccc4c(=O)n(C5CCNCC5)ncc4c3)cc(Cl)c2n1 [Compound 256]
5.00 to 6.00 | > 7.00 | 6.00 to 7.00 | – | – | Cc1cn2cc(-c3ccc4c(=O)n(C5CCNCC5)ncc4c3)cc(C)c2n1 [Compound 257]
6.00 to 7.00 | 6.00 to 7.00 | 6.00 to 7.00 | – | – | Cc1cn2nc(-c3ccc4c(=O)n(C5CCNCC5)ncc4c3)nc2c(C)n1 [Compound 259]
5.00 to 6.00 | 6.00 to 7.00 | 6.00 to 7.00 | – | – | Cc1cn2nc(-c3ccc4c(=O)n(C5CCNCC5)ncc4c3)cc2c(C)n1 [Compound 260]
6.00 to 7.00 | > 7.00 | > 7.00 | – | – | Cc1cn2nc(-c3ccc4c(=O)n(C5CCN(C)CC5)ncc4c3)cc(C)c2n1 [Compound 265]
– | – | > 7.00 | 6.00 to 7.00 | > 7.00 | Cc1cn2nc(-c3ccc4c(=O)n([C@@H]5CCNC6(CC6)C5)cnc4c3)cc(C)c2n1 [Compound 444]
